Measurements: patent US10723741B1, “DNA polymerase IIIC inhibitors and use thereof” (Acurx Pharmaceuticals, LLC, priority 2018, dated 2020)
≈ marks a conversion by molar mass, not a printed value.

Experiments:
Type in all cases: cell-based
[1] = test system: Bacillus subtilis ATCC 6633; assay: Broth microdilution MIC, B. subtilis ATCC 6633; details: ATCC6633, broth microdilution, 37° C., 20 hours, read-out: MIC B. subtilis ATCC 6633
Method in brief: (§1)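 Two-fold dilutions from 64 to 0.0625 μg/ml final, 1% DMSO, were inoculated at ~5.0×10^5 cfu/ml in the strain's test medium and kept 20 h at 37 °C in ambient atmosphere. Colonies were grown on MHA, with S. pneumoniae on blood agar under 5% CO2.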

[2] = test system: Staphylococcus aureus ATCC 29213 (MSSA); assay: Broth microdilution MIC, S. aureus ATCC 29213 (MSSA); details: broth microdilution, 37° C., 20 hours, read-out: MIC S. aureus ATCC 29213 (MSSA)
Method in brief: as §1

[3] = test system: Staphylococcus aureus NRS384 (MRSA); assay: Broth microdilution MIC, S. aureus NRS384 (MRSA); details: Staphylococcus aureus; broth microdilution, 37° C., 20 hours; read-out: MIC NRS 384 (MRSA)
Method in brief: as §1

[4] = test system: Enterococcus faecium ATCC 700221 (VRE); assay: Broth microdilution MIC, E. faecium ATCC 700221 (VRE); set-up: MIC E. faecium ATCC 700221 (VRE): unit: ug/mL; details: broth microdilution, 37° C., 20 hours; for MIC: Enterococcus faecium, read-out: MIC E. faecium ATCC 700221 (VRE)
Method in brief: as §1

[5] = test system: Escherichia coli ATCC 25922; assay: Broth microdilution MIC, E. coli ATCC 25922 (MHIIB w & w/o 4 mM EDTA); details: broth microdilution, 37° C., 20 hours; for MIC: Escherichia coli, ATCC25922, without EDTA, read-out: MIC E. coli ATCC 25922; for MIC E. coli ATCC 25922 + 4 mM EDTA: with 4 mM EDTA
Method in brief: as §1

[6] = test system: Enterococcus faecalis ATCC 29212; assay: Broth microdilution MIC, E. faecalis ATCC 29212; details: ATCC29212, broth microdilution, 37° C., 20 hours, read-out: MIC E. faecalis ATCC 29212
Method in brief: as §1

[7] = test system: Streptococcus pneumoniae ATCC 49619; assay: Broth microdilution MIC, S. pneumoniae ATCC 49619; details: ATCC49619, broth microdilution, 37° C., 20 hours, read-out: MIC S. pneumoniae ATCC 49619
Method in brief: as §1

Compound	MIC [1] [µg/mL]	MIC [2] [µg/mL]	MIC [3] [µg/mL]	MIC [4] [µg/mL]	MIC [5] [µg/mL]	MIC E. coli ATCC 25922 + 4 mM EDTA [5] [µg/mL]	MIC [6] [µg/mL]	MIC [7] [µg/mL]	MIC E. faecium ATCC 700221 (VRE) [4]
NCCn1ncc2nc(NCc3ccc(Cl)c(Cl)c3)[nH]c(=O)c21 [Compound 63, 1-(2-Aminoethyl)-5-[(3,4-dichlorophenyl)methylamino]-6H-pyrazolo[4,3-d]pyrimidin-7-one]	8 (≈ 22.6 µM)	64 (≈ 181 µM)	64 (≈ 181 µM)	32 (≈ 90.6 µM)	> 64	>64	32 (≈ 90.6 µM)	8 (≈ 22.6 µM)	–
CC(=O)N1CCN(CCn2ncc3nc(NCc4ccc(Cl)c(Cl)c4)[nH]c(=O)c32)CC1.Cl [Compound 64, 1-(2-(4-Acetylpiperazin-1-yl)ethyl)-5-((3,4-dichlorobenzyl)amino)-1H-pyrazolo[4,3-d]pyrimidin-7(6H)-one hydrochloride]	2	8	8	2	> 64	64	4	4	–
Cl.O=c1[nH]c(NCc2ccc(Cl)c(Cl)c2)nc2cnn(CCN3CCC(O)CC3)c12 [Compound 65, 5-((3,4-Dichlorobenzyl)amino)-1-(2-(4-hydroxypiperidin-1-yl)ethyl)-1H-pyrazolo[4,3-d]pyrimidin-7(6H)-one hydrochloride]	4	16	16	8	> 64	64	8	4	–
Cl.NC(=O)C1CCN(CCn2ncc3nc(NCc4ccc(Cl)c(Cl)c4)[nH]c(=O)c32)CC1 [Compound 66, 1-(2-(5-((3,4-Dichlorobenzyl)amino)-7-oxo-6,7-dihydro-1H-pyrazolo[4,3-d]pyrimidin-1-yl)ethyl)piperidine-4-carboxamide hydrochloride hydrochloride]	8	64	32	16	> 64	64	32	8	–
CN(C)C1CCN(CCn2ncc3nc(NCc4ccc(Cl)c(Cl)c4)[nH]c(=O)c32)CC1.Cl.Cl [Compound 67, 5-((3,4-Dichlorobenzyl)amino)-1-(2-(4-(dimethylamino)piperidin-1-yl)ethyl)-1H-pyrazolo[4,3-d]pyrimidin-7(6H)-one dihydrochloride]	8	32	32	16	> 64	>64	16	8	–
Cl.O=c1[nH]c(NCc2ccc(Cl)c(Cl)c2)nc2cnn(CCN3C[C@@H]4C[C@H]3CO4)c12 [Compound 68, 1-(2-((1 S,4S)-2-oxa-5-azabicyclo[2.2.1]heptan-5-yl)ethyl)-5-((3,4-dichlorobenzyl)amino)-1H-pyrazolo[4,3-d]pyrimidin-7(6H)-one hydrochloride]	1	4	4	–	> 64	64	4	4	4/2
CN1CC2CC1CN2CCn1ncc2nc(NCc3ccc(Cl)c(Cl)c3)[nH]c(=O)c21.Cl.Cl (stereo not shown) [Compound 69, 5-((3,4-Dichlorobenzyl)amino)-1-(2-(5-methyl-2,5-diazabicyclo[2.2.1]heptan-2-yl)ethyl)-1H-pyrazolo[4,3-d]pyrimidin-7(6H)-one dihydrochloride]	4	32	64	> 64	> 64	>64	32	8	–
Cl.O=c1[nH]c(NCc2ccc(Cl)c(Cl)c2)nc2cnn(CCN3CC(O)C3)c12 [Compound 70, 5-((3,4-Dichlorobenzyl)amino)-1-(2-(3-hydroxyazetidin-1-yl)ethyl)-1H-pyrazolo[4,3-d]pyrimidin-7(6H)-one hydrochloride]	16	> 64	64	> 64	> 64	64	64	8	–
Cl.Cl.O=c1[nH]c(NCc2ccc(Cl)c(Cl)c2)nc2cnn(CCN3CCN(CCO)CC3)c12 [Compound 71, 5-((3,4-Dichlorobenzyl)amino)-1-(2-(4-(2-hydroxyethyl)piperazin-1-yl)ethyl)-1H-pyrazolo[4,3-d]pyrimidin-7(6H)-one dihydrochloride]	4	32	64	16	> 64	>64	32	4	–
CN(C)C(=O)C1CN(CCn2ncc3nc(NCc4ccc(Cl)c(Cl)c4)[nH]c(=O)c32)CCO1.Cl (stereo not shown) [Compound 72, 4-(2-(5-((3,4-Dichlorobenzyl)amino)-7-oxo-6,7-dihydro-1H-pyrazolo[4,3-d]pyrimidin-1-yl)ethyl)-N,N-dimethylmorpholine-2-carboxamide hydrochloride]	4	16	16	8	> 64	>64	8	8	–
CN(C)CC1CN(CCn2ncc3nc(NCc4ccc(Cl)c(Cl)c4)[nH]c(=O)c32)CCO1.Cl.Cl (stereo not shown) [Compound 73, 5-((3,4-Dichlorobenzyl)amino)-1-(2-(2-((dimethylamino)methyl)morpholino)ethyl)-1H-pyrazolo[4,3-d]pyrimidin-7(6H)-one dihydrochloride]	4	16	16	8	> 64	>64	16	8	–
O=c1[nH]c(NCc2ccc(Cl)c(Cl)c2)nc2cnn(CCN3CCNCC3)c12 [Compound 74, 5-((3,4-dichlorobenzyl)amino)-1-(2-(piperazin-1-yl)ethyl)-1H-pyrazolo[4,3-d]pyrimidin-7(6H)-one]	8 (≈ 18.9 µM)	32 (≈ 75.8 µM)	64 (≈ 152 µM)	16 (≈ 37.9 µM)	> 64	>64	64 (≈ 152 µM)	16 (≈ 37.9 µM)	–
O=c1[nH]c(NCc2ccc(Cl)c(Cl)c2)nc2cnn(CC(O)CO)c12 (stereo not shown) [Compound 75, 5-((3,4-dichlorobenzyl)amino)-1-(2,3-dihydroxypropyl)-1H-pyrazolo[4,3-d]pyrimidin-7(6H)-one]	8 (≈ 20.8 µM)	16 (≈ 41.6 µM)	16 (≈ 41.6 µM)	8 (≈ 20.8 µM)	> 64	>64	16 (≈ 41.6 µM)	4 (≈ 10.4 µM)	–
O=c1[nH]c(NCc2ccc(Cl)c(Cl)c2)nc2cnn(CCO)c12 [Compound 76, 5-((3,4-dichlorobenzyl)amino)-1-(2-hydroxyethyl)-1H-pyrazolo[4,3-d]pyrimidin-7(6H)-one]	2 (≈ 5.65 µM)	4 (≈ 11.3 µM)	4 (≈ 11.3 µM)	2 (≈ 5.65 µM)	> 64	>64	4 (≈ 11.3 µM)	4 (≈ 11.3 µM)	–
O=c1[nH]c(NCc2ccc(Cl)c(Cl)c2)nc2cnn(CCNCCn3ncc4nc(NCc5ccc(Cl)c(Cl)c5)[nH]c(=O)c43)c12 [Compound 78]	4 (≈ 5.8 µM)	64 (≈ 92.8 µM)	32 (≈ 46.4 µM)	2 (≈ 2.9 µM)	> 64	>64	8 (≈ 11.6 µM)	32 (≈ 46.4 µM)	–
Cc1noc(C)c1C(=O)NCCn1ncc2nc(NCc3ccc(Cl)c(Cl)c3)[nH]c(=O)c21 [Compound 79, N-(2-(5-((3,4-dichlorobenzyl)amino)-7-oxo-6,7-dihydro-1H-pyrazolo[4,3-d]pyrimidin-1-yl)ethyl)-3,5-dimethylisoxazole-4-carboxamide]	16 (≈ 33.6 µM)	16 (≈ 33.6 µM)	32 (≈ 67.2 µM)	8 (≈ 16.8 µM)	> 64	>64	16 (≈ 33.6 µM)	8 (≈ 16.8 µM)	–
Cc1noc(C)c1C(=O)N(C)CCn1ncc2nc(NCc3ccc(Cl)c(Cl)c3)[nH]c(=O)c21 [Compound 80, N-(2-(5-((3,4-dichlorobenzyl)amino)-7-oxo-6,7-dihydro-1H-pyrazolo[4,3-d]pyrimidin-1-yl)ethyl)-N,3,5-trimethylisoxazole-4-carboxamide]	16 (≈ 32.6 µM)	32 (≈ 65.3 µM)	32 (≈ 65.3 µM)	16 (≈ 32.6 µM)	> 64	64	32 (≈ 65.3 µM)	8 (≈ 16.3 µM)	–
